Data as given in patent publication EP4775580A1, “COMPOUND, PHARMACEUTICAL COMPOSITION COMPRISING SAME, AND USE THEREOF” (Euregen Biopharma Co., Ltd., priority 2023, dated 2025).
Where a chain is given by its changes, count along the chain named.

Experiments:
Conditions in all cases: FP, 8 nM Menin, 4 nM MLL peptide
Menin-M327V = target: T1, Menin-M327V (Homo sapiens, UniProt O00255, M322V); assay: Fluorescence polarization assay of Menin binding to MLL peptide, M327V mutant
T1 sequence (O00255 1-615 isoform O00255-1 M327V): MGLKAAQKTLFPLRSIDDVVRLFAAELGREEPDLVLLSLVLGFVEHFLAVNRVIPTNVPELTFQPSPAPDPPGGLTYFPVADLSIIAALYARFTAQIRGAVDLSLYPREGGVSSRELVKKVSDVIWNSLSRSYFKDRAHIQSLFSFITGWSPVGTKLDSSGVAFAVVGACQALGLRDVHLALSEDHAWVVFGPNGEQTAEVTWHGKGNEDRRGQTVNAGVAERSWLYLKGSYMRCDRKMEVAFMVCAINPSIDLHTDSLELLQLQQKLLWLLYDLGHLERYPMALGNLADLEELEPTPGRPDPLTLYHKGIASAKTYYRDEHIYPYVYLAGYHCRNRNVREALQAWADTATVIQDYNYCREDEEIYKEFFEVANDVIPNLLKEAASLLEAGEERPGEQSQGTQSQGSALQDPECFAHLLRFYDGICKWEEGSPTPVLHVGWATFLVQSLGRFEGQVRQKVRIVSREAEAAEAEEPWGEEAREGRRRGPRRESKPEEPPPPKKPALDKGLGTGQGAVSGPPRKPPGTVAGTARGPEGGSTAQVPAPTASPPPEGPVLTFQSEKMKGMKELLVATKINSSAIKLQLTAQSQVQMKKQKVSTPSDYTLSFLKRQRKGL
Excerpt: (§1) • 1. Objective: To evaluate the inhibitory activity of compounds against wild-type Menin protein (Menin-WT) and its mutant variants (Menin-M327V, Menin-M327I, Menin-T349M, Menin-S160T, Menin-S160C, Menin-G331R, and Menin-G331D). • 2. Experimental Principle: The experiment employed fluorescence polarization (FP) to detect the binding of wild-type Menin protein and its mutant variants to MLL peptide. In the absence of inhibitors, binding of wild-type Menin protein and its mutant variants to MLL peptide generates a high FP signal; upon addition of inhibitors, the binding between Menin proteins and MLL peptide is disrupted, resulting in a low FP signal. • 3. Experimental Materials: Final concentration of wild-type Menin protein and its mutant variants: 8 nM; final concentration of MLL peptide: 4 nM. Assay buffer: 50 mM Tris-HCl (pH 8.0), 120 mM NaCl, 0.005% CA-630, 2 mM DTT. • 4. […] The plate was centrifuged at 1000 rpm for 60 seconds. Subsequently, 10 µL of MLL peptide was added to each assay well. The plate was centrifuged at 1000 rpm for 60 seconds and sealed with a sealing membrane. After incubation at 23°C for 60 minutes, the plate was read using a PerkinElmer Envision reader. Data Analysis: [formula]
(§2) Curve fitting: XLFIT software was used for curve fitting, employing a four-parameter logistic model with percent inhibition versus log(compound concentration) as variables.

Menin-M327I = target: T2, Menin-M327I (Homo sapiens, UniProt O00255, M322I); assay: Fluorescence polarization assay of Menin binding to MLL peptide, M327I mutant
T2 sequence (O00255 1-615 isoform O00255-1 M327I): T1 sequence (O00255 1-615 isoform O00255-1 M327V) with V327I
Excerpt: as §1, §2

Menin-G331R = target: T3, Menin-G331R (Homo sapiens, UniProt O00255, G326R); assay: Fluorescence polarization assay of Menin binding to MLL peptide, G331R mutant
T3 sequence (O00255 1-615 isoform O00255-1 G331R): T1 sequence (O00255 1-615 isoform O00255-1 M327V) with V327M, G331R
Excerpt: as §1, §2

CCN(C(=O)c1cc(F)ccc1N1CCN([C@@H]2CCN([C@H](CCCN(C)CCOC)C(C)C)C2)c2ncncc21)C(C)C [Example 3]
IC50 (Menin-M327V): 49.3 nM
IC50 (Menin-M327I): 40.7 nM
IC50 (Menin-G331R): 36.7 nM

CCN(C(=O)c1cc(F)ccc1Oc1cncnc1N1CC2(CCN(C[C@H]3CC[C@H](NS(=O)(=O)CC)CC3)CC2)C1)C(C)C [SNDX-5613, revumenib]
IC50 (Menin-M327V): 1300 nM
IC50 (Menin-M327I): 928 nM
IC50 (Menin-G331R): 101 nM
